Laboratory results from patent US8309580B2, “Heterocyclic compound” (Takeda Pharmaceutical Company Limited, priority 2007, dated 2012).

What follows are molecules tested against human-type glucagon receptor (Homo sapiens, UniProt P47871) (assay: Glucagon binding inhibitory activity ([125I]-glucagon binding to glucagon receptor membrane protein)). Conditions: glucagon receptor membrane protein from FreeStyle CHO cells, 90 min at room temperature.
Description: The glucagon binding inhibitory action of the compound of the present invention was evaluated by the following method.
(1) Preparation of Glucagon Receptor Membrane Protein
A human-type glucagon receptor was expressed using FreeStyle CHO Expression System (Invitrogen). A transient expression in FreeStyle CHO cell was performed using a human-type glucagon expression plasmid DNA and according to the manual attached to the FreeStyle CHO Expression System. The above-mentioned DNA was transfected and the cultured with shaking for 2 days (37° C., 8% CO2, 125 rpm). 2400 ml of culture medium was centrifuged at 2,000 rpm for 10 min and the cells were collected. The collected cells were washed with PBS, suspended in homogenate buffer [10 mM NaHCO3 (pH 7.4), 1 mM EDTA, Complete EDTA-free (Roche, 1 tablet/50 mL)] and disrupted by polytron cell disrupter (Kinematica AG). Disruption solution was centrifuged at 2,000 rpm for 10 min and the supernatant was collected. The supernatant was centrifuged at 35,000 rpm for 60 min and the precipitate was suspended in a buffer [20 mM Tris-HCl (pH 7.4), 5 mM EDTA, Complete EDTA-free (Roche, 1 tablet/50 mL)] to give a glucagon receptor membrane protein (452 mg).
(2) Measurement of Glucagon Binding Inhibitory Activity
To each well of 96 well plate (Corning Incorporated) were added 25 μl of test compound (containing 0.4% DMSO), 50 μl of glucagon receptor membrane protein diluted with reaction buffer [50 mM Tris-HCl (pH 7.4), 5 mM EGTA, 5 mM magnesium chloride, 0.1% BSA, 0.005% Tween20] to 100 μg/ml, and 25 μl of radioactive labeled glucagon ([^125I]-Receptor Grade Glucagon; Perkin Elmer Inc.) diluted with the reaction buffer to 200 pM, whereby the reaction was started. The plate was stood for 90 min at room temperature. The reaction solution was transferred from the reaction plate to a 96 well unifilter GF/C plate (Perkin Elmer Inc.) using a cell harvester (Perkin Elmer Inc.) and the membrane fraction was collected on the filter by suction. The filter was presoaked in 2 mg/ml of polyethyleneimine to prevent non-specific adsorption of labeled ligand. The filter was washed 4 times with a reaction buffer and dried for 2 hr at 42° C. To each well was added 25 μl of scintillator (MicroScint0; Perkin Elmer Inc.), and the fluorescence amount was measured using a microplate scintillation counter (TopCount NXT™; Perkin Elmer Inc.). The glucagon binding inhibitory activity (IC50 value) of the well added with the test compound (containing 0.4% DMSO) was calculated, using the reaction rate of the well added only with 0.4% DMSO as 0% inhibitory rate, and the reaction rate of the well added with non-labeled glucagon (final concentration 1 μM) as 100% inhibitory rate.

Chain of human-type glucagon receptor (P47871 26-477): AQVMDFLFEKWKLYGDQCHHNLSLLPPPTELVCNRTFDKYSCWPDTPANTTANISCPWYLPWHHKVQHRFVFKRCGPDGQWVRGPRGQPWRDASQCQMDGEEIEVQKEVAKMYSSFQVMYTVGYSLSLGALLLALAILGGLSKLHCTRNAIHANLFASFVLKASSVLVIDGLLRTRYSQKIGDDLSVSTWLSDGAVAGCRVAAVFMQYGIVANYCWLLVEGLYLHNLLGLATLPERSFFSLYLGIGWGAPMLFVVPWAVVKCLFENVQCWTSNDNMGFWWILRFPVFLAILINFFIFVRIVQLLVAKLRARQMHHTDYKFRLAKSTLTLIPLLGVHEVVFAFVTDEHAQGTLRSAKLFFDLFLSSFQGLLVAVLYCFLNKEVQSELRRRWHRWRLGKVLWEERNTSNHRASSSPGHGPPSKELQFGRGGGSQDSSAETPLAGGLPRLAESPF

Structure (SMILES)	IC50
COc1ccc(-c2cc(C(CC(C)C)Nc3ccc(C(=O)N(C)CCC(=O)O)cc3)c(C)o2)cn1 (single isomer, unassigned) [Ex. 319, 3-[{[4-({1-[5-(6-methoxypyridin-3-yl)-2-methylfuran-3-yl]-3-methylbutyl}amino)phenyl]carbonyl}(methyl)amino]propanoic acid]	230 nM
CCc1oc(-c2ccc(C(F)(F)F)cc2)cc1C(Nc1ccc(C(=O)N(C)CCC(=O)O)cc1)C1CCCCC1 (centres unmarked) [Ex. 10, 3-[{4-[(cyclohexyl{2-ethyl-5-[4-(trifluoromethyl)phenyl]-3-furyl}methyl)amino]benzoyl}(methyl)amino]propanoic acid]	250 nM
CCc1oc(-c2ccc(C(F)(F)F)cc2)cc1C(CC(C)C)Oc1ccc(C(=O)NCCC(=O)O)cc1 (centres unmarked) [Ex. 5, 3-{[4-(1-{2-ethyl-5-[4-(trifluoromethyl)phenyl]-3-furyl}-3-methylbutoxy)benzoyl]amino}propanoic acid]	630 nM
CCc1sc(C2CCCCC2)cc1C(Nc1ccc(C(=O)NCCC(=O)O)cc1)C1CCCCC1 (centres unmarked) [Ex. 79, 3-{[(4-{[cyclohexyl(5-cyclohexyl-2-ethylthiophen-3-yl)methyl]amino}phenyl)carbonyl]amino}propanoic acid]	97 nM

More lines, now with the values ahead:

IC50	Structure (SMILES)
290 nM	COCc1oc(-c2ccc(F)cc2)cc1C(Nc1ccc(C(=O)N(C)CCC(=O)O)cc1)C1CCCCC1 (centres unmarked) [Ex. 314, 3-[{[4-({cyclohexyl[5-(4-fluorophenyl)-2-(methoxymethyl)furan-3-yl]methyl}amino)phenyl]carbonyl}(methyl)amino]propanoic acid]
190 nM	CCc1sc(CC(C)C)cc1C(Nc1ccc(C(=O)NCCC(=O)O)cc1)C1CCCCC1 (centres unmarked) [Ex. 83, 3-({[4-({cyclohexyl[2-ethyl-5-(2-methylpropyl)thiophen-3-yl]methyl}amino)phenyl]carbonyl}amino)propanoic acid]
650 nM	Cc1sc(-c2ccccc2)cc1C(Nc1ccc(C(=O)N(C)CCC(=O)O)nc1)C1CCCCC1 (centres unmarked) [Ex. 311, 3-{[(5-{[cyclohexyl(2-methyl-5-phenylthiophen-3-yl)methyl]amino}pyridin-2-yl)carbonyl](methyl)amino}propanoic acid]
57 nM	CCc1sc(-c2ccc(C(F)(F)F)cc2)cc1C(Nc1ccc(C(=O)NCCC(=O)O)cc1)C1CCCCC1 (centres unmarked) [Ex. 71, 3-[({4-[(cyclohexyl{2-ethyl-5-[4-(trifluoromethyl)phenyl]thiophen-3-yl}methyl)amino]phenyl}carbonyl)amino]propanoic acid]
400 nM	Cc1oc(-c2ccc(F)cc2)cc1C(Nc1ccc(C(=O)N(C)CCC(=O)O)nc1)C1CCCCC1 (centres unmarked) [Ex. 318, 3-[{[5-({cyclohexyl[5-(4-fluorophenyl)-2-methylfuran-3-yl]methyl}amino)pyridin-2-yl]carbonyl}(methyl)amino]propanoic acid]
110 nM	Cc1oc(-c2ccc(OC(F)(F)F)cc2)cc1C(Nc1ccc(C(=O)NCCC(=O)O)cc1)C1CCCCC1 (centres unmarked) [Ex. 53, 3-({4-[(cyclohexyl{2-methyl-5-[4-(trifluoromethoxy)phenyl]-3-furyl}methyl)amino]benzoyl}amino)propanoic acid]
180 nM	COc1ccc(-c2cc(C(Nc3ccc(C(=O)N(C)CCC(=O)O)cc3)C3CCCCC3)c(C)o2)cn1 (single isomer, unassigned) [Ex. 166, 3-[{[4-({cyclohexyl[5-(6-methoxypyridin-3-yl)-2-methylfuran-3-yl]methyl}amino)phenyl]carbonyl}(methyl)amino]propanoic acid]

These molecules were tested on glucagon-induced blood glucose increase (assay: Test of glucagon-induced blood glucose increase-suppressive action in mouse). Conditions: male ICR mouse, fasted; test compound 10 mg/kg orally 60 min before s.c. glucagon 10 μg/kg with octreotide; blood glucose 30 min after glucagon.
Type: in vivo
Description: Test of Glucagon-Induced Blood Glucose Increase-Suppressive Action in Mouse
Full feeding ICR mouse (male, 7-week-old) was fasted, and 0.5% methylcellulose suspension (compound-administration group, 8 mice per group) containing a test compound (10 mg/kg body weight) or 0.5% methylcellulose suspension (compound-non-administration group, 8 mice per group) was orally administered. After 60 minutes, glucagon (10 μg/kg body weight, Novo Nordisk Pharma Ltd.) containing octreotide (100 μg/kg body weight, Novo Nordisk Pharma Ltd.) was subcutaneously administered. After 30 minutes from the glucagon administration, blood samples were collected from the tail vein of the mouse, and the blood glucose level was measured by a glucose self-test kit ACCU-CHEK (Roche Diagnostics K.K.). As a non-treatment group (8 mice per group), the blood glucose level of mouse of the compound-non-administration group, which was free of glucagon administration, was measured in the same manner as in the above.
The differences between the average blood glucose level of the compound-non-administration group, the average blood glucose level of the compound administration group, and the average blood glucose level of the non-treatment group were each calculated, and the percentage of the “difference between the blood glucose level of the compound administration group and that of the non-treatment group” relative to the “difference between the blood glucose level of the compound-non-administration group and that of the non-treatment group” as 100% was determined as an “increasing rate of blood glucose (% of control)”.

Structure (SMILES)	increasing rate of blood glucose (% of control)
COCc1oc(-c2ccc(OC)nc2)cc1C(Nc1ccc(C(=O)N(C)CCC(=O)O)cc1)C1CCCCC1 (centres unmarked) [Example 147, 3-[{[4-({cyclohexyl[2-(methoxymethyl)-5-(6-methoxypyridin-3-yl)furan-3-yl]methyl}amino)phenyl]carbonyl}(methyl)amino]propanoic acid]	8.6 % of control
CCc1oc(-c2ccc(C(F)(F)F)cc2)cc1C(Nc1ccc(C(=O)N(C)CCC(=O)O)cc1)C1CCCCC1 (centres unmarked) [Ex. 87, 3-[({4-[(cyclohexyl{2-ethyl-5-[4-(trifluoromethyl)phenyl]furan-3-yl}methyl)amino]phenyl}carbonyl)(methyl)amino]propanoic acid]	6.5 % of control
COc1ccc(-c2cc(C(CC(C)C)Nc3ccc(C(=O)N(C)CCC(=O)O)cc3)c(C)o2)cn1 (centres unmarked) [Example 149, 3-[{[4-({1-[5-(6-methoxypyridin-3-yl)-2-methylfuran-3-yl]-3-methylbutyl}amino)phenyl]carbonyl}(methyl)amino]propanoic acid]	6.8 % of control
